Where two headings read alike, the source gives them in different places.
What was measured:
[1] = tested on: SMN2 mRNA; experiment: Splicing RT-qPCR gene panel, SMN2 canonical junction (CJ) mRNA; assay type: cell-based; details: Homo sapiens; Table 8; larger gene panel, decrease in CJ mRNA levels
How it was run: (§1)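 A673 or K562 cells were exposed for 24 h at 37 °C to an 11-point 3-fold dilution series (top 10 uM final, DMSO ≤0.25%). Lysates were analysed by one-step RT-qPCR for canonical (CJ) and alternative (AJ) junctions. Values were normalized to GAPDH, GUSB or PPIA and to DMSO (ΔΔCt), then converted to percentage response.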

[2] = tested on: MYB mRNA; experiment: Splicing RT-qPCR assay, MYB canonical (CJ) and alternative (AJ) junction mRNA; assay type: cell-based; details: Homo sapiens; for EC50: AC50 = 50% response in AJ mRNA increase
How it was run: as §1

[3] = tested on: HiBiT-tagged HTT protein; experiment: HiBiT protein abundance assay, HTT (K562 HiBiT knock-in cells); assay type: cell-based, human; details: 24 hours treatment
How it was run: (§2)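 K562 cells carrying endogenous HiBiT-tagged targets were treated 24 h at 37 °C with 10-point 3-fold dilutions from 10 µM final (≤0.25% DMSO). Abundance read by lytic HiBiT luminescence, normalized to DMSO and unmodified-K562 controls; IC50 is the 4-parameter-fit concentration giving 50% of untreated signal.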

[4] = tested on: HTT mRNA; experiment: Splicing RT-qPCR assay, HTT canonical (CJ) and alternative (AJ) junction mRNA; assay type: cell-based; details: Homo sapiens; for EC50: AC50 = 50% response in AJ mRNA increase
How it was run: as §1

[5] = tested on: K562 (human chronic myelogenous leukemia) cells; experiment: Cell viability, Cell Titer Glo 2.0 assay, K562 cells; assay type: cell-based; details: 72 hours
How it was run: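 K562 cells seeded at 500 cells/well in IMDM + 10% FBS; compounds serially diluted in DMSO, then 1:100 in medium (final DMSO 0.1%). Incubated 72 h at 37° C, 5% CO2; viability read by Cell Titer Glo 2.0 luminescence against medium-only blank.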

[6] = tested on: HiBiT-tagged MYB protein; experiment: HiBiT protein abundance assay, MYB (K562 HiBiT knock-in cells); assay type: cell-based, human; details: 24 hours treatment
How it was run: as §2

[7] = tested on: Target C mRNA; experiment: Splicing RT-qPCR gene panel, Target C canonical junction (CJ) mRNA; assay type: cell-based; details: Homo sapiens; Table 8; larger gene panel, decrease in CJ mRNA levels
How it was run: as §1

[8] = tested on: Target C; experiment: HiBiT protein abundance assay, Target C (K562 HiBiT knock-in cells); assay type: cell-based, human; details: 24 hours treatment
How it was run: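 K562 HiBiT knock-in cells (10000/well) were treated 24 h at 37 °C with a 10-point 3-fold dilution series, top final concentration […], DMSO ≤0.25%. Target abundance was read by lytic HiBiT luminescence and normalized to unmodified K562 and DMSO controls. A four-parameter fit gave the concentration giving 50% of untreated abundance.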

[9] = Table 7, RT-qPCR, A673 or K562 cells, 24 hours treatment
[10] = Table 7, IC50 = 50% response in CJ mRNA decrease, RT-qPCR, A673 or K562 cells, 24 hours treatment, read-out: MYB CJ
[11] = Table 8, larger gene panel, decrease in CJ mRNA levels, read-out: MYB CJ IC50
[12] = Table 7, IC50 = 50% response in CJ mRNA decrease, RT-qPCR, A673 or K562 cells, 24 hours treatment, read-out: HTT CJ
[13] = Table 8, larger gene panel, decrease in CJ mRNA levels, read-out: HTT CJ IC50

IC50 [1] [nM]	EC50 [2, 9] [nM]	IC50 [2, 10] [nM]	IC50 [2, 11] [nM]	IC50 [3] [nM]	EC50 [4, 9] [nM]	IC50 [4, 12] [nM]	IC50 [4, 13] [nM]	IC50 [5] [nM]	IC50 [6] [nM]	IC50 [7] [nM]	IC50 [8] [nM]	Compound
< 100	100 to 1000	1000 to 10000	100 to 1000	100 to 1000	100 to 1000	100 to 1000	100 to 1000	1000 to 10000	1000 to 10000	100 to 1000	1000 to 10000	Cn1cc2cc(-c3cc4cn(C5CCNCC5)nc4s3)c(O)c(F)c2n1 [Compound 215]
< 100	100 to 1000	100 to 1000	100 to 1000	< 100	< 100	< 100	< 100	100 to 1000	100 to 1000	100 to 1000	< 100	Cc1cn2cc(-c3cc4cn(C5CCNCC5)nc4s3)cc(C)c2n1 [Compound 216]
< 100	100 to 1000	100 to 1000	100 to 1000	< 100	100 to 1000	< 100	100 to 1000	100 to 1000	100 to 1000	100 to 1000	100 to 1000	COc1c(-c2cc3cn(C4CCNCC4)nc3s2)cc2cn(C)nc2c1F [Compound 218]
1000 to 10000	> 10000	> 10000	> 10000	> 10000	> 10000	> 10000	> 10000	1000 to 10000	> 10000	> 10000	> 10000	COc1c(-c2cc3cn(C4CCNCC4)nc3s2)nn2cc(C)nc(C)c12 [Compound 219, 4-(5-{3-methoxy-4,6-dimethylpyrazolo[1,5-a]pyrazin-2-yl}thieno[2,3-c]pyrazol-2-yl) piperidine]
1000 to 10000	1000 to 10000	1000 to 10000	1000 to 10000	1000 to 10000	1000 to 10000	1000 to 10000	1000 to 10000	1000 to 10000	1000 to 10000	1000 to 10000	1000 to 10000	Cn1cc2cc(-n3cc4cc(C5CCNCC5)sc4n3)c(O)cc2n1 [Compound 220]
> 10000	> 10000	> 10000	> 10000	100 to 1000	> 10000	> 10000	> 10000	1000 to 10000	100 to 1000	> 10000	100 to 1000	Cc1c(O)c(-c2cc3cn(C4CCNCC4)nc3s2)cc2cn(C)nc12 [Compound 221]
< 100	1000 to 10000	1000 to 10000	1000 to 10000	100 to 1000	1000 to 10000	1000 to 10000	1000 to 10000	1000 to 10000	1000 to 10000	1000 to 10000	1000 to 10000	Cc1cn2nc(-c3cc4cn(C5CCNCC5)nc4s3)cc2c(C)n1 [Compound 222]
100 to 1000	1000 to 10000	1000 to 10000	1000 to 10000	1000 to 10000	1000 to 10000	1000 to 10000	1000 to 10000	1000 to 10000	1000 to 10000	1000 to 10000	1000 to 10000	Cc1cn2cc(-c3cc4cn(C5CCNCC5)nc4s3)ncc2n1 [Compound 223]
> 10000	> 10000	> 10000	> 10000	> 10000	> 10000	> 10000	> 10000	> 10000	> 10000	> 10000	> 10000	COc1c(-c2cc3cn(C4CCNCC4)nc3s2)cc(F)c2nn(C)cc12 [Compound 224]
< 100	100 to 1000	100 to 1000	100 to 1000	< 100	< 100	< 100	< 100	100 to 1000	100 to 1000	100 to 1000	< 100	Cc1cc(-c2cc3cn(C4CCNCC4)nc3s2)cc2cn(C)nc12 [Compound 225]
< 100	100 to 1000	100 to 1000	100 to 1000	< 100	< 100	< 100	< 100	100 to 1000	100 to 1000	100 to 1000	< 100	Cc1cn2cc(-c3cc4cn(C5CCNCC5)nc4s3)cc(Cl)c2n1 [Compound 226]
100 to 1000	1000 to 10000	1000 to 10000	1000 to 10000	100 to 1000	1000 to 10000	100 to 1000	100 to 1000	1000 to 10000	1000 to 10000	1000 to 10000	1000 to 10000	Cc1cn2cc(-n3cc4cc(C5CCNCC5)sc4n3)nc2c(C)n1 [Compound 227]
100 to 1000	1000 to 10000	1000 to 10000	1000 to 10000	100 to 1000	100 to 1000	100 to 1000	100 to 1000	1000 to 10000	1000 to 10000	1000 to 10000	1000 to 10000	Cc1cn2cc(-c3cc4cn(C5CCNCC5)nc4s3)nc(C)c2n1 [Compound 228]
< 100	100 to 1000	100 to 1000	100 to 1000	< 100	< 100	< 100	< 100	100 to 1000	100 to 1000	100 to 1000	< 100	Cc1cn2cc(-c3cc4cn(C5CCNCC5)nc4s3)cc(F)c2n1 [Compound 229]
100 to 1000	1000 to 10000	> 10000	> 10000	1000 to 10000	1000 to 10000	> 10000	> 10000	1000 to 10000	> 10000	> 10000	> 10000	Cn1cc2cc(-c3cc4cn([C@@H]5CCNC[C@H]5O)nc4s3)cc(F)c2n1 [Compound 273]
< 100	100 to 1000	100 to 1000	100 to 1000	< 100	100 to 1000	100 to 1000	100 to 1000	1000 to 10000	100 to 1000	100 to 1000	100 to 1000	Cn1cc2cc(-c3nc4cn(C5CCNCC5)nc4s3)cc(F)c2n1 [Compound 1100, 7-fluoro-2-methyl-5-[2-(piperidin-4-yl)pyrazolo[4,3-d][1,3]thiazol-5-yl]indazole]
< 100	100 to 1000	100 to 1000	100 to 1000	< 100	100 to 1000	< 100	< 100	100 to 1000	100 to 1000	100 to 1000	< 100	Cc1cc(-c2nc3cn(C4CCNCC4)nc3s2)cc2cn(C)nc12 [Compound 1101]
1000 to 10000	1000 to 10000	1000 to 10000	1000 to 10000	1000 to 10000	1000 to 10000	1000 to 10000	1000 to 10000	1000 to 10000	1000 to 10000	1000 to 10000	1000 to 10000	COc1c(-c2nc3cn(C4CCNCC4)nc3s2)cc2cn(C)nc2c1C [Compound 1103]
< 100	1000 to 10000	1000 to 10000	1000 to 10000	< 100	100 to 1000	100 to 1000	100 to 1000	1000 to 10000	1000 to 10000	1000 to 10000	100 to 1000	Cc1nc2cc(O)c(-c3nc4cn(C5CCNCC5)nc4s3)cc2o1 [Compound 1104]
1000 to 10000	> 10000	> 10000	> 10000	1000 to 10000	> 10000	> 10000	> 10000	> 10000	1000 to 10000	> 10000	> 10000	Cc1cn2cc(-c3nc4cn(C5CCNCC5)nc4s3)nc(C)c2n1 [Compound 1105, 4-(5-{2,8-dimethylimidazo[1,2-a]pyrazin-6-yl}pyrazolo[4,3-d][1,3]thiazol-2-yl)piperidine]
